According to patent publication US20110166121A1 (LG LIFE SCIENCES LTD., priority 2008, published 2011):

The compounds below were run on Human platelet aggregation caused by ADP (assay: Inhibition of ADP-induced platelet aggregation (Mimic-human PRP)). Details: 20 μM ADP, human platelet concentrate diluted with PPP, absorption at 595 nm.
Format: cell-based
In short: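 Human PRP diluted with PPP to 3–4×10^8 platelets/mL was preincubated 20 min at room temperature with compound (0.01–30 μM, DMSO), then stimulated with 20 μM ADP. Aggregation read as A595 increase at 3 min versus 0 and 20 μM ADP controls; Ki from sigmoidal non-linear regression.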

Point of comparison: `CCCc1cc2c(N3CCn4c(nnc4C(F)(F)F)C3)nc(OCCN(C)C(=O)OC)nc2s1` [Example 9-95, Methyl-{2-[6-propyl-4-(3-trifluoromethyl-5,6-dihydro-8H-[1,2,4]triazolo[4,3-a]pyrazin-7-yl)-thieno[2,3-d]pyrimidin-2-yloxy]-ethyl}-carbamic acid methyl ester], Ki 7.2 nM. Against it:
- CCCc1cc2c(N3CCn4c(nnc4C(F)(F)F)C3)nc(OCC(C)NC=O)nc2s1 (stereo not drawn) [Example 9-75, N-{1-Methyl-2-[6-propyl-4-(3-trifluoromethyl-5,6-dihydro-8H-[1,2,4]triazolo[4,3-a]pyrazin-7-yl)-thieno[2,3-d]pyrimidin-2-yloxy]-ethyl}-formamide] — 2.4-fold lower, 3 nM
- CCCc1cc2c(N3CCn4c(nnc4C(F)(F)F)C3)nc(OC(C)CNC(C)=O)nc2s1 (stereo not drawn) [Example 9-76, N-{2-[6-Propyl-4-(3-trifluoromethyl-5,6-dihydro-8H-[1,2,4]triazolo[4,3-a]pyrazin-7-yl)-thieno[2,3-d]pyrimidin-2-yloxy]-propyl}-acetamide] — 3.1-fold higher, 22 nM
- CCCc1cc2c(N3CCn4c(nnc4C(F)(F)F)C3)nc(OCC(C)NC(C)=O)nc2s1 (stereo not drawn) [Example 9-77, N-{1-Methyl-2-[6-propyl-4-(3-trifluoromethyl-5,6-dihydro-8H-[1,2,4]triazolo[4,3-a]pyrazin-7-yl)-thieno[2,3-d]pyrimidin-2-yloxy]-ethyl}-acetamide] — within 1.5-fold, 6 nM
- CCCc1cc2c(N3CCn4c(nnc4C(F)(F)F)C3)nc(OCC(C)(C)NC=O)nc2s1 [Example 9-78, N-{1,1-Dimethyl-2-[6-propyl-4-(3-trifluoromethyl-5,6-dihydro-8H-[1,2,4]triazolo[4,3-a]pyrazin-7-yl)-thieno[2,3-d]pyrimidin-2-yloxy]-ethyl}-formamide] — 3.5-fold higher, 25 nM
- CCCc1cc2c(N3CCn4c(nnc4C(F)(F)F)C3)nc(OCC(C)(C)NC(C)=O)nc2s1 [Example 9-79, N-{1,1-Dimethyl-2-[6-propyl-4-(3-trifluoromethyl-5,6-dihydro-8H-[1,2,4]triazolo[4,3-a]pyrazin-7-yl)-thieno[2,3-d]pyrimidin-2-yloxy]-ethyl}-acetamide] — 2.1-fold lower, 3.4 nM
- CCCc1cc2c(N3CCn4c(nnc4C(F)(F)F)C3)nc(OC(C)CNC(=O)OC)nc2s1 (stereo not drawn) [Example 9-80, {2-[6-Propyl-4-(3-trifluoromethyl-5,6-dihydro-8H-[1,2,4]triazolo[4,3-a]pyrazin-7-yl)-thieno[2,3-d]pyrimidin-2-yloxy]-propyl}-carbamic acid methyl ester] — 2.1-fold higher, 15 nM
- CCCc1cc2c(N3CCn4c(nnc4C(F)(F)F)C3)nc(OCC(C)NC(=O)OC)nc2s1 (stereo not drawn) [Example 9-81, {1-Methyl-2-[6-propyl-4-(3-trifluoromethyl-5,6-dihydro-8H-[1,2,4]triazolo[4,3-a]pyrazin-7-yl)-thieno[2,3-d]pyrimidin-2-yloxy]-ethyl}-carbamic acid methyl ester] — within 1.5-fold, 7 nM
- CCCc1cc2c(N3CCn4c(nnc4C(F)(F)F)C3)nc(OCC(C)(C)NC(=O)OC)nc2s1 [Example 9-82, {1,1-Dimethyl-2-[6-propyl-4-(3-trifluoromethyl-5,6-dihydro-8H-[1,2,4]triazolo[4,3-a]pyrazin-7-yl)-thieno[2,3-d]pyrimidin-2-yloxy]-ethyl}-carbamic acid methyl ester] — within 1.5-fold, 5 nM
- CCCc1cc2c(N3CCn4c(nnc4C(F)(F)F)C3)nc(OCCF)nc2s1 [Example 9-83, 7-[2-(2-Fluoro-ethoxy)-6-propyl-thieno[2,3-d]pyrimidin-4-yl]-3-trifluoromethyl-5,6,7,8-tetrahydro-[1,2,4]triazolo[4,3-a]pyrazine] — 24-fold lower, 0.3 nM
- CCCc1cc2c(N3CCn4c(nnc4C(F)(F)F)C3)nc(OCC(F)(F)F)nc2s1 [Example 9-84, 7-[6-Propyl-2-(2,2,2-trifluoro-ethoxy)-thieno[2,3-d]pyrimidin-4-yl]-3-trifluoromethyl-5,6,7,8-tetrahydro-[1,2,4]triazolo[4,3-a]pyrazine] — 94-fold higher, 680 nM
- CCCc1cc2c(N3CCn4c(nnc4C(F)(F)F)C3)nc(OCCCN3CCCC3=O)nc2s1 [Example 9-85, 1-{3-[6-Propyl-4-(3-trifluoromethyl-5,6-dihydro-8H-[1,2,4]triazolo[4,3-a]pyrazin-7-yl)-thieno[2,3-d]pyrimidin-2-yloxy]-propyl}-pyrrolidin-2-one] — 280-fold higher, 2000 nM
- CCCc1cc2c(N3CCn4c(nnc4C(F)(F)F)C3)nc(OCCCNC(=O)OC)nc2s1 [Example 9-86, {3-[6-Propyl-4-(3-trifluoromethyl-5,6-dihydro-8H-[1,2,4]triazolo[4,3-a]pyrazin-7-yl)-thieno[2,3-d]pyrimidin-2-yloxy]-propyl}-carbamic acid methyl ester] — 96-fold higher, 690 nM
- CCCc1cc2c(N3CCn4c(nnc4C(F)(F)F)C3)nc(OCCCNC(C)=O)nc2s1 [Example 9-87, N-{3-[6-Propyl-4-(3-trifluoromethyl-5,6-dihydro-8H-[1,2,4]triazolo[4,3-a]pyrazin-7-yl)-thieno[2,3-d]pyrimidin-2-yloxy]-propyl}-acetamide] — 60-fold higher, 430 nM
- CCCc1cc2c(N3CCn4c(nnc4C(F)(F)F)C3)nc(OCCCCNC(=O)OC)nc2s1 [Example 9-88, {4-[6-Propyl-4-(3-trifluoromethyl-5,6-dihydro-8H-[1,2,4]triazolo[4,3-a]pyrazin-7-yl)-thieno[2,3-d]pyrimidin-2-yloxy]-butyl}-carbamic acid methyl ester] — 58-fold higher, 420 nM
- CCCc1cc2c(N3CCn4c(nnc4C(F)(F)F)C3)nc(OCCCCNC(C)=O)nc2s1 [Example 9-89, N-{4-[6-Propyl-4-(3-trifluoromethyl-5,6-dihydro-8H-[1,2,4]triazolo[4,3-a]pyrazin-7-yl)-thieno[2,3-d]pyrimidin-2-yloxy]-butyl}-acetamide] — 40-fold higher, 290 nM
- CCCc1cc2c(N3CCn4c(nnc4C(F)(F)F)C3)nc(OCCCNC=O)nc2s1 [Example 9-90, N-{3-[6-Propyl-4-(3-trifluoromethyl-5,6-dihydro-8H-[1,2,4]triazolo[4,3-a]pyrazin-7-yl)-thieno[2,3-d]pyrimidin-2-yloxy]-propyl}-formamide] — 15-fold higher, 110 nM
- CCCc1cc2c(N3CCn4c(nnc4C(F)(F)F)C3)nc(OCCCCNC=O)nc2s1 [Example 9-91, N-{4-[6-Propyl-4-(3-trifluoromethyl-5,6-dihydro-8H-[1,2,4]triazolo[4,3-a]pyrazin-7-yl)-thieno[2,3-d]pyrimidin-2-yloxy]-butyl}-formamide] — 26-fold higher, 190 nM
- CCCc1cc2c(N3CCn4c(nnc4C(F)(F)F)C3)nc(OCCCn3cccc3)nc2s1 [Example 9-92, 7-[6-Propyl-2-(3-pyrrol-1-yl-propoxy)-thieno[2,3-d]pyrimidin-4-yl]-3-trifluoromethyl-5,6,7,8-tetrahydro-[1,2,4]triazolo[4,3-a]pyrazine] — 180-fold higher, 1300 nM
- CCCc1cc2c(N3CCn4c(nnc4C(F)(F)F)C3)nc(OCCN(C)C=O)nc2s1 [Example 9-93, N-Methyl-N-{2-[6-propyl-4-(3-trifluoromethyl-5,6-dihydro-8H-[1,2,4]triazolo[4,3-a]pyrazin-7-yl)-thieno[2,3-d]pyrimidin-2-yloxy]-ethyl}-formamide] — 7.2-fold higher, 52 nM
- CCCc1cc2c(N3CCn4c(nnc4C(F)(F)F)C3)nc(N3CC[C@H](N(CCO)C(=O)OC)C3)nc2s1 [Example 9-94, (2-Hydroxy-ethyl)-{(S)-1-[6-propyl-4-(3-trifluoromethyl-5,6-dihydro-8H-[1,2,4]triazolo[4,3-a]pyrazin-7-yl)-thieno[2,3-d]pyrimidin-2-yl]-pyrrolidin-3-yl}-carbamic acid methyl ester] — 39-fold higher, 280 nM
